Measurements taken from ChEMBL document CHEMBL3885881, “DrugMatrix”.

Species: Rattus norvegicus
Test: DrugMatrix - Regimen: Daily Repeat
Type: toxicity, organism-based, Sprague-Dawley
Set-up: regimen Daily Repeat, gender Male, age 6-8 weeks
Details: in vivo, po, route oral GAVAGE, vehicle .5 % CMC; for BASOPHIL / EOSINOPHIL / ERYTHROCYTE COUNT / HEMATOCRIT / HEMOGLOBIN / LEUKOCYTE COUNT / LYMPHOCYTE / MEAN CORPUSCULAR HEMOGLOBIN / MEAN CORPUSCULAR HEMOGLOBIN CONCENTRATION / MEAN CORPUSCULAR VOLUME / MONOCYTE / NEUTROPHIL / PLATELET COUNT: tissue Blood; for ALANINE AMINOTRANSFERASE / ALBUMIN / ALKALINE PHOSPHATASE / ASPARTATE AMINOTRANSFERASE / BLOOD UREA NITROGEN / CHLORIDE / CHOLESTEROL / CREATINE PHOSPHOKINASE / CREATININE / GLUCOSE / PHOSPHORUS / POTASSIUM / SODIUM / TOTAL BILIRUBIN / TOTAL PROTEIN: tissue Plasma
[1] = 20 mg/kg, 72 h, dose level Low, time 3 day
[2] = 20 mg/kg, 120 h, dose level Low, time 5 day
[3] = 380 mg/kg, 72 h, dose level High, time 3 day
[4] = 380 mg/kg, 120 h, dose level High, time 5 day

CNCCCC12CCC(c3ccccc31)c1ccccc12 [MAPROTILINE]
BASOPHIL [1]: 0%
EOSINOPHIL [1]: 0.33%
ERYTHROCYTE COUNT [1]: 5.97 x10E6/uL
HEMATOCRIT [1]: 35.97%
HEMOGLOBIN [1]: 14.2 G/DL
LEUKOCYTE COUNT [1]: 11.3 x10E3/uL
LYMPHOCYTE [1]: 87.33%
MEAN CORPUSCULAR HEMOGLOBIN [1]: 23.77 pg
MEAN CORPUSCULAR HEMOGLOBIN CONCENTRATION [1]: 39.47 G/DL
MEAN CORPUSCULAR VOLUME [1]: 60.2 fL
MONOCYTE [1]: 1.67%
NEUTROPHIL [1]: 10.67%
PLATELET COUNT [1]: 1123 x10E3/uL
ALANINE AMINOTRANSFERASE [1]: 39.33 u/L
ALBUMIN [1]: 3.83 G/DL
ALKALINE PHOSPHATASE [1]: 403 u/L
ASPARTATE AMINOTRANSFERASE [1]: 64 u/L
BLOOD UREA NITROGEN [1]: 12.67 mg/dL
CHLORIDE [1]: 106.67 MEQ/L
CHOLESTEROL [1]: 71.67 mg/dL
CREATINE PHOSPHOKINASE [1]: 175 u/L
CREATININE [1]: 0.67 mg/dL
GLUCOSE [1]: 177.33 mg/dL
PHOSPHORUS [1]: 12.37 mg/dL
POTASSIUM [1]: 6.9 MEQ/L
SODIUM [1]: 151.33 MEQ/L
TOTAL BILIRUBIN [1]: 0.57 mg/dL
TOTAL PROTEIN [1]: 6.1 G/DL
BASOPHIL [2]: 0%
EOSINOPHIL [2]: 1%
ERYTHROCYTE COUNT [2]: 6.02 x10E6/uL
HEMATOCRIT [2]: 36.33%
HEMOGLOBIN [2]: 15.57 G/DL
LEUKOCYTE COUNT [2]: 13.27 x10E3/uL
LYMPHOCYTE [2]: 86.33%
MEAN CORPUSCULAR HEMOGLOBIN [2]: 25.9 pg
MEAN CORPUSCULAR HEMOGLOBIN CONCENTRATION [2]: 42.9 G/DL
MEAN CORPUSCULAR VOLUME [2]: 60.4 fL
MONOCYTE [2]: 1.33%
NEUTROPHIL [2]: 11.33%
PLATELET COUNT [2]: 1112.33 x10E3/uL
ALANINE AMINOTRANSFERASE [2]: 38.67 u/L
ALBUMIN [2]: 3.83 G/DL
ALKALINE PHOSPHATASE [2]: 339.67 u/L
ASPARTATE AMINOTRANSFERASE [2]: 60 u/L
BLOOD UREA NITROGEN [2]: 14.33 mg/dL
CHLORIDE [2]: 108.67 MEQ/L
CHOLESTEROL [2]: 65.33 mg/dL
CREATINE PHOSPHOKINASE [2]: 168.67 u/L
CREATININE [2]: 0.7 mg/dL
GLUCOSE [2]: 182.33 mg/dL
PHOSPHORUS [2]: 12 mg/dL
POTASSIUM [2]: 6.77 MEQ/L
SODIUM [2]: 149 MEQ/L
TOTAL BILIRUBIN [2]: 0.6 mg/dL
TOTAL PROTEIN [2]: 6.27 G/DL
BASOPHIL [3]: 0%
EOSINOPHIL [3]: 0.33%
ERYTHROCYTE COUNT [3]: 6.59 x10E6/uL
HEMATOCRIT [3]: 38.93%
HEMOGLOBIN [3]: 15.5 G/DL
LEUKOCYTE COUNT [3]: 12 x10E3/uL
LYMPHOCYTE [3]: 88.67%
MEAN CORPUSCULAR HEMOGLOBIN [3]: 23.53 pg
MEAN CORPUSCULAR HEMOGLOBIN CONCENTRATION [3]: 39.8 G/DL
MEAN CORPUSCULAR VOLUME [3]: 59.17 fL
MONOCYTE [3]: 2.33%
NEUTROPHIL [3]: 8.67%
PLATELET COUNT [3]: 1142.67 x10E3/uL
ALANINE AMINOTRANSFERASE [3]: 38 u/L
ALBUMIN [3]: 3.63 G/DL
ALKALINE PHOSPHATASE [3]: 350.33 u/L
ASPARTATE AMINOTRANSFERASE [3]: 63.67 u/L
BLOOD UREA NITROGEN [3]: 14.33 mg/dL
CHLORIDE [3]: 106.33 MEQ/L
CHOLESTEROL [3]: 88.67 mg/dL
CREATINE PHOSPHOKINASE [3]: 166.33 u/L
CREATININE [3]: 0.5 mg/dL
GLUCOSE [3]: 164.67 mg/dL
PHOSPHORUS [3]: 10.83 mg/dL
POTASSIUM [3]: 6.27 MEQ/L
SODIUM [3]: 152.33 MEQ/L
TOTAL BILIRUBIN [3]: 0.4 mg/dL
TOTAL PROTEIN [3]: 5.93 G/DL
BASOPHIL [4]: 0%
EOSINOPHIL [4]: 1%
ERYTHROCYTE COUNT [4]: 7.43 x10E6/uL
HEMATOCRIT [4]: 42%
HEMOGLOBIN [4]: 16.1 G/DL
LEUKOCYTE COUNT [4]: 7.2 x10E3/uL
LYMPHOCYTE [4]: 85%
MEAN CORPUSCULAR HEMOGLOBIN [4]: 21.7 pg
MEAN CORPUSCULAR HEMOGLOBIN CONCENTRATION [4]: 38.3 G/DL
MEAN CORPUSCULAR VOLUME [4]: 56.5 fL
MONOCYTE [4]: 1%
NEUTROPHIL [4]: 13%
PLATELET COUNT [4]: 1275 x10E3/uL
ALANINE AMINOTRANSFERASE [4]: 81 u/L
ALBUMIN [4]: 3.7 G/DL
ALKALINE PHOSPHATASE [4]: 457 u/L
ASPARTATE AMINOTRANSFERASE [4]: 158 u/L
BLOOD UREA NITROGEN [4]: 17.5 mg/dL
CHLORIDE [4]: 108 MEQ/L
CHOLESTEROL [4]: 44.5 mg/dL
CREATINE PHOSPHOKINASE [4]: 289 u/L
CREATININE [4]: 0.65 mg/dL
GLUCOSE [4]: 206 mg/dL
PHOSPHORUS [4]: 12.6 mg/dL
POTASSIUM [4]: 7.3 MEQ/L
SODIUM [4]: 151.5 MEQ/L
TOTAL BILIRUBIN [4]: 0.35 mg/dL
TOTAL PROTEIN [4]: 5.95 G/DL
